Reference: ChEMBL document CHEMBL6083268, “Discovery of BAY 2413555, First Selective Positive Allosteric Modulator of the M2 Receptor to Restore Cardiac Autonomic Balance” (J Med Chem, 2024)
Converted amounts (≈) assume the structure as drawn.

Tests used:
[1] = Intrinsic clearance in rat hepatocytes measured for 90 mins by LC-MS/MS analysis; type: ADME, cell-based, Hepatocyte; details: read-out: CLH (converted)
[2] = Efflux ratio of apparent permeability across basal to apical membrane over apical to basal membrane in human Caco-2 cells at 2 uM measured after 2 hrs by LC-MS/MS analysis
[3] = Fraction unbound in rat plasma; type: ADME, cell-free
[4] = Fraction unbound in human plasma; type: ADME, cell-free
[5] = Solubility of the compound in PBS buffer at pH 6.5 measured after 24 hrs by LC-MS/MS analysis; type: physicochemical
[6] = Oral bioavailability in Wistar rat at 1 mg/kg by LC-MS analysis; type: ADME, organism-based; details: in vivo
[7] = Blood clearance in Wistar rat at 0.3 mg/kg, iv administered as bolus dose by LC-MS analysis; type: ADME, organism-based
[8] = Apparent permeability of the compound across apical to basolateral sides in human Caco-2 cells at 2 uM measured after 2 hrs by LC-MS/MS analysis; type: ADME, cell-based
[9] = Volume of distribution at steady state in Wistar rat at 0.3 mg/kg, iv administered as bolus dose by LC-MS analysis; type: ADME, organism-based; details: in vivo, read-out: Vdss
[10] = Half-life in Wistar rat at 0.3 mg/kg, iv administered as bolus dose by LC-MS analysis; type: ADME, organism-based; details: in vivo
[11] = Tmax in Wistar rat at 1 mg/kg, po by LC-MS/MS analysis; type: ADME, organism-based; details: in vivo
[12] = Half life in Wistar rat at 1 mg/kg, po by LC-MS/MS analysis; type: ADME, organism-based; details: in vivo
[13] = biological target: T1, Muscarinic acetylcholine receptor M2 (Homo sapiens, UniProt P08172)
T1 sequence (P08172 whole entry): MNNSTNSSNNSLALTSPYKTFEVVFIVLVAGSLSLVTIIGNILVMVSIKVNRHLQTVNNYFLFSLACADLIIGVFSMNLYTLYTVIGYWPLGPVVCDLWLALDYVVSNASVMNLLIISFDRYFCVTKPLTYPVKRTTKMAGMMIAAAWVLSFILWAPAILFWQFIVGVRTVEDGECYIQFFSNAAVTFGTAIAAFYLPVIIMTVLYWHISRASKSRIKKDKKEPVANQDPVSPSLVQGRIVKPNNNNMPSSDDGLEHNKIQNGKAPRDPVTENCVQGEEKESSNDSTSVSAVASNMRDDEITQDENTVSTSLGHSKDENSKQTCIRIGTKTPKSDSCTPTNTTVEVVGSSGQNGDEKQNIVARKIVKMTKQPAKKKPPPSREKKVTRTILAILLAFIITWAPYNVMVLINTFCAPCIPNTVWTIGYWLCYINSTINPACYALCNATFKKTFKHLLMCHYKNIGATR

[14] = biological target: T1, Muscarinic acetylcholine receptor M2; test: Displacement of [3H]7-[(3R,4R)-3,4-Dihydroxypyrrolidin-1-yl]-6-fluoro-4-oxo-N-[3,3,4,4,4-pentafluorobutan-2-yl]-1-(2,4,6-trifluorophenyl)-1,4-dihydro-1,8-naphthyridine-3-carboxamide from human M2 muscarinic acetylcholine receptor expressed in CHO-S cells in presence of acetylcholine by competitive radioligand binding assay; type: cell-based

Row | SMILES | predicted hepatic blood clearance at […] [1] [mL/min/kg] | solubility at 24 h [5] [µg/mL] | clearance [7] [mL/min/kg] | Papp A→B at 2 h, 2 µM [8] [×10⁻⁶ cm/s] | Vd [9] [L/kg] | half-life [10] [h] | other results
1 | O=C(NC12CC3CC(CC(C3)C1)C2)c1cn(-c2ccc(F)cc2F)c2nc(N3CCCC3=O)ccc2c1=O | 60 | – | – | – | – | – | –
2 | O=C(Nc1c(Cl)cccc1Cl)c1cn(-c2ccc(F)cc2F)c2nc(N3C[C@@H](O)CC3=O)ccc2c1=O | 26.7 | – | – | – | – | – | –
3 | O=C(NC1(C(F)(F)F)CCC1)c1cn(-c2c(F)cc(F)cc2F)c2nc(N3C[C@@H](O)[C@H](O)C3)ccc2c1=O | 58.3 | 0.9 (≈ 1.66 µM) | – | – | – | – | –
4 | CCC(NC(=O)c1cn(-c2c(F)cc(F)cc2F)c2nc(N3C[C@@H](O)[C@H](O)C3)c(F)cc2c1=O)C(F)(F)C(F)(F)F (single isomer, unassigned; diastereomer 1) | 20 | 11.2 (≈ 18.7 µM) | 23.3 | 11.3 | 3 | 1.8 | fraction unbound [3]: 0.006; Tmax [11]: 6 h; bioavailability [6]: 48%; half-life [12]: 4.2 h
5 | O=C(NC12CC3CC(CC(C3)C1)C2)c1cn(-c2ccc(F)cc2F)c2nc(N3CCCC3)ccc2c1=O | 50 | – | – | – | – | – | –
6 | CCC(NC(=O)c1cn(-c2c(F)cc(F)cc2F)c2nc(N3C[C@@H](O)[C@H](O)C3)ccc2c1=O)C(F)(F)C(F)(F)F (single isomer, unassigned; diastereomer 1) | 33.3 | 62 (≈ 107 µM) | 8.33 | 8.3 | 1.2 | 2.1 | fraction unbound [3]: 0.013; fraction unbound [4]: 0.018; bioavailability [6]: 22%
7 | CC(C)(C)C(NC(=O)c1cn(-c2c(F)cc(F)cc2F)c2nc(N3C[C@@H](O)[C@H](O)C3)c(F)cc2c1=O)C(F)(F)C(F)(F)F (single isomer, unassigned; diastereomer 2) | 51.7 | 0.4 (≈ 0.638 µM) | – | 6 | – | – | –
8 | CC[C@H](NC(=O)c1cn(-c2c(F)cc(F)cc2F)c2nc(N3CC4CC4(O)C3)ccc2c1=O)C(F)(F)F (mixture of isomers) | 56.7 | < 0.1 | – | – | – | – | –
9 | CC[C@H](NC(=O)c1cn(-c2c(F)cc(F)cc2F)c2nc(N3C[C@@H](O)[C@H](O)C3)ccc2c1=O)C(F)(F)F | 21.7 | 13 (≈ 24.5 µM) | 25 | 1.2 | 3.5 | 1.6 | –
10 | CC(NC(=O)c1cn(-c2c(F)cc(F)cc2F)c2nc(N3C[C@@H](O)[C@H](O)C3)ccc2c1=O)C(F)(F)C(F)(F)F (single isomer, unassigned; diastereomer 1) | 13.3 | 54.7 (≈ 96.6 µM) | 11.7 | 19.3 | 2.5 | 2.1 | bioavailability [6]: 21%
11 | CN(C)c1ccc2c(=O)c(C(=O)NC34CC5CC(CC(C5)C3)C4)cn(-c3ccc(F)cc3F)c2n1 | 41.7 | – | – | – | – | – | –
12 | O=C(N[C@@H](C1CC1)C(F)(F)F)c1cn(-c2c(F)cc(F)cc2F)c2nc(N3C[C@@H](O)[C@H](O)C3)ccc2c1=O | 18.3 | 12.5 (≈ 23 µM) | 15 | 12.9 | 3.7 | 4.6 | efflux ratio at 2 h, 2 µM [2]: 8; fraction unbound [3]: 0.025; fraction unbound [4]: 0.033; bioavailability [6]: 19%
13 | CC(C)(C)[C@H](NC(=O)c1cn(-c2c(F)cc(F)cc2F)c2nc(N3C[C@@H](O)[C@H](O)C3)ccc2c1=O)C(F)(F)F | 41.7 | 1.4 (≈ 2.51 µM) | – | – | – | – | –
14 | O=C(NC1(C(F)(F)F)CCCC1)c1cn(-c2c(F)cc(F)cc2F)c2nc(N3C[C@@H](O)[C@H](O)C3)ccc2c1=O | 60 | – | – | – | – | – | –
15 | COc1nc2sc(C(=O)NC3CC3)c(N)c2c(C)c1Cl | – | – | – | – | – | – | EC50 [13]: 2.4 µM; Ki [14]: 3 µM

Continued, in another order:

Row | predicted hepatic blood clearance at […] [1] [mL/min/kg] | solubility at 24 h [5] [µg/mL] | clearance [7] [mL/min/kg] | Papp A→B at 2 h, 2 µM [8] [×10⁻⁶ cm/s] | Vd [9] [L/kg] | half-life [10] [h] | SMILES | other results
16 | 21.7 | 2.9 (≈ 5.68 µM) | 21.7 | 48.2 | 1.7 | 1.2 | CC[C@@H](NC(=O)c1cn(-c2c(F)cccc2F)c2nc(N3C[C@@H](O)CC3=O)ccc2c1=O)C(F)(F)F | efflux ratio at 2 h, 2 µM [2]: 0.8; fraction unbound [3]: 0.009; fraction unbound [4]: 0.023; bioavailability [6]: 29%
17 | 16.7 | 0.4 (≈ 0.757 µM) | 20 | 46.2 | 3.5 | 3.4 | CC[C@H](NC(=O)c1cn(-c2c(F)cc(F)cc2F)c2nc(N3C[C@@H](O)CC3=O)ccc2c1=O)C(F)(F)F | efflux ratio at 2 h, 2 µM [2]: 0.6; fraction unbound [3]: 0.02; fraction unbound [4]: 0.03; bioavailability [6]: 91%
18 | 25 | 1.5 (≈ 2.94 µM) | – | – | – | – | CC[C@H](NC(=O)c1cn(-c2c(F)cccc2F)c2nc(N3C[C@@H](O)CC3=O)ccc2c1=O)C(F)(F)F | –
19 | 43.3 | – | – | – | – | – | CC[C@@H](NC(=O)c1cn(-c2c(Cl)cccc2Cl)c2nc(N3C[C@@H](O)CC3=O)ccc2c1=O)C(F)(F)F | –
20 | 31.7 | 2.2 (≈ 4.16 µM) | 56.7 | 43.4 | 2.3 | 0.9 | CC[C@@H](NC(=O)c1cn(-c2c(F)cc(F)cc2F)c2nc(N3C[C@@H](O)CC3=O)ccc2c1=O)C(F)(F)F | efflux ratio at 2 h, 2 µM [2]: 0.6
21 | 31.7 | 1.1 (≈ 2.23 µM) | – | – | – | – | CC[C@@H](NC(=O)c1cn(-c2ccccc2F)c2nc(N3C[C@@H](O)CC3=O)ccc2c1=O)C(F)(F)F | –
22 | 6.67 | 1.8 (≈ 3.52 µM) | – | – | – | – | CC[C@H](NC(=O)c1cn(-c2ncc(F)cc2F)c2nc(N3C[C@@H](O)CC3=O)ccc2c1=O)C(F)(F)F | –
23 | 22.7 | 1.9 (≈ 3.72 µM) | 26.7 | 45.6 | 0.8 | 0.8 | CC[C@@H](NC(=O)c1cn(-c2ccc(F)cc2F)c2nc(N3C[C@@H](O)CC3=O)ccc2c1=O)C(F)(F)F | efflux ratio at 2 h, 2 µM [2]: 0.9; fraction unbound [3]: 0.008; bioavailability [6]: 29%
24 | 43.3 | 0.3 (≈ 0.59 µM) | – | – | – | – | CC[C@@H](NC(=O)c1cn(-c2ccccc2Cl)c2nc(N3C[C@@H](O)CC3=O)ccc2c1=O)C(F)(F)F | –
25 | 31.7 | < 0.1 | – | – | – | – | CC[C@@H](NC(=O)c1cn(-c2c(Cl)cc(F)cc2Cl)c2nc(N3C[C@@H](O)CC3=O)ccc2c1=O)C(F)(F)F | –
